Test results reported in PubChem BioAssay AID1918937 (Molecular Pharmacology Branch, DTP, NCI, 2023).
Values joined by “and” are separate entries in the source; they are usually repeats but may differ in a detail not shown here. Identical values can stand only once.

Test system: 521955-158-R2-J5-PDC complex spheroid viability
Assay: Anticancer human tumor 521955-158-R2-J5-PDC patient-derived pancreatic carcinoma cell line growth inhibition
Conditions: for viability, T/C: stronger effect = lower value
Text: Multicellular complex tumor spheroid response to LSD1 Inhibitor Iadademstat in combination with a variety of drugs and investigational agents in selected tumor cell lines
The current study was undertaken to assess response to LSD1 inhibitors in combination with standard-of-care drugs and investigational agents in solid tumor complex spheroid models as well as in the K-562 leukemia. Complex spheroids include a stromal component modeled by human endothelial cells (HUVEC) and fibroblasts modeled by human mesenchymal stem cells (MSCs). The concentration ranges selected for each drug and investigational agent were based upon clinically achievable concentrations if the clinical Cmax of the agent was known.
Compounds. The drugs and investigational agents used in this study are listed on Table 1. All of the agents used, including staurosporine (NSC755774) and gemcitabine (NSC613327), were obtained from the Developmental Therapeutics Program, NCI. FDA-approved anticancer drugs are available from the NCI at http://dtp.nci.nih.gov/branches/dscb/oncology_drugset_explanation.html. Drugs and investigational agents were >95% pure by proton nuclear magnetic resonance (NMR) and liquid chromatography/mass spectrometry (LC/MS). Stock solutions were prepared at 400x in DMSO, stored at -70 degrees C, and diluted in fresh medium prior to their use. The final concentration of DMSO in cell culture wells never exceeded 0.25% (v/v). The FDA-approved anticancer drug set is available from the Developmental Therapeutics Program at https://dtp.cancer.gov/organization/dscb/obtaining/available_plates.htm. All drugs and investigational agents were tested over a range starting from a high concentration at or near the clinical Cmax and decreasing in half-log increments. If the clinical Cmax for an agent had not been determined, the highest concentration tested was 10 microM.
Cell Lines. The patient-derived cancer cell (PDC) lines: 292921-168-R-J2-PDC, K24384-001-R-PDC, and 521955-158-R2-J5-PDC pancreatic carcinomas, 556581-035-R-J1 ovarian carcinoma, 324938-238-R-J1-PDC, 855422-203-R-J1-PDC and 883617-216-R-J1-PDC urothelial bladder carcinomas, 743489-274-T-PDC renal cell carcinoma, 138582-R-J1 Merkel cell tumor, K60290-347-R-J1 and K57222-313-R-J1-PDC glioblastomas, 653999-131-R-J2-PDC, LG0703-F948-PDC, and 349418-098-R-PDC non-small cell lung carcinomas, 885512-296-R-J2-PDC, 171881-019-R-J1-PDC breast carcinomas and 186277-243-T-J2-PDC and 233499-124-R-J2-PDC colon carcinomas were obtained from the NCI Patient-Derived Models Repository (PDMR, https://pdmr.cancer.gov). The established cell lines NCI/ADR-RES (RRID:CVCL_14520 and OVCAR-5 (RRID:CVCL_1628) ovarian carcinomas, 786-O (RRID:CVCL_1051) and A498 (RRID:CVCL_A498) renal cell carcinoma, NCI-H211 (ATCC, cat. CRL-5824; RRID:CVCL_1529), NCI-H196 (ATCC, cat. CRL-5823, RRID:CVCL_1509), SW 1271 (ATCC, cat. CRL-2177, RRID:CVCL_1716) and NCI-H1876 (ATCC, cat. CRL-5902, RRID:CVCL_1503) small cell lung carcinomas, MDA-MB-231 (RRID:CVCL_0062) and MDA-MB-468 (RRID:CVCL_0419)breast carcinomas (10-12). Pooled donor human umbilical vein endothelial cells (HUVEC, Lonza, cat. CC-2519) and human mesenchymal stem cells (hMSC, Lonza, cat. PT-2501) were purchased from Lonza (Walkersville, MD).
Cell Culture. All cells were maintained in an incubator at 37 degrees C and 5% CO2 with 95% humidity. The PDC lines were cultured according to standard operating procedures established by the NCI PDMR (https://pdmr.cancer.gov). Briefly all PDCs were thawed and cultured in Matrigel-coated flasks prepared with a working solution of 1X Ham's F-12 nutrient mix, without supplementation (Invitrogen, Waltham, MA, cat. 11765054), 100 U/mL penicillin-streptomycin (Invitrogen, cat. 15140122), and 2.5% Matrigel (Corning Inc., Corning, NY, cat. 354248) for the first three passages. […]

[1] = curve of first compound, second compound 0.1 µM
[2] = curve of first compound, second compound 0.316 µM
[3] = curve of first compound, second compound 1 µM
[4] = curve of first compound, second compound 3.16 µM
[5] = curve of first compound, second compound 10 µM
[6] = second compound 0.1 µM, first compound 0.00316 µM
[7] = second compound 0.1 µM, first compound 0.01 µM
[8] = second compound 0.1 µM, first compound 0.0316 µM
[9] = second compound 0.1 µM, first compound 0.1 µM
[10] = second compound 0.1 µM, first compound 0.316 µM
[11] = second compound 0.1 µM, first compound 1 µM
[12] = second compound 0.316 µM, first compound 0.00316 µM
[13] = second compound 0.316 µM, first compound 0.01 µM
[14] = second compound 0.316 µM, first compound 0.0316 µM
[15] = second compound 0.316 µM, first compound 0.1 µM
[16] = second compound 0.316 µM, first compound 0.316 µM
[17] = second compound 0.316 µM, first compound 1 µM
[18] = second compound 1 µM, first compound 0.00316 µM
[19] = second compound 1 µM, first compound 0.01 µM
[20] = second compound 1 µM, first compound 0.0316 µM
[21] = second compound 1 µM, first compound 0.1 µM
[22] = second compound 1 µM, first compound 0.316 µM
[23] = second compound 1 µM, first compound 1 µM
[24] = second compound 3.16 µM, first compound 0.00316 µM
[25] = second compound 3.16 µM, first compound 0.01 µM
[26] = second compound 3.16 µM, first compound 0.0316 µM
[27] = second compound 3.16 µM, first compound 0.1 µM
[28] = second compound 3.16 µM, first compound 0.316 µM
[29] = second compound 3.16 µM, first compound 1 µM
[30] = second compound 10 µM, first compound 0.00316 µM
[31] = second compound 10 µM, first compound 0.01 µM
[32] = second compound 10 µM, first compound 0.0316 µM
[33] = second compound 10 µM, first compound 0.1 µM
[34] = second compound 10 µM, first compound 0.316 µM
[35] = second compound 10 µM, first compound 1 µM
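Note: spheroids exposed to agents for seven days.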
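Throughout, for viability, T/C: percent of DMSO vehicle control luminescence viability.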

## COc1cc(C2c3cc4c(cc3C(OC3OC5COC(C)OC5C(O)C3O)C3COC(=O)C23)OCO4)cc(OC)c1O (configuration not stated) + NC1CCC(NC2CC2c2ccccc2)CC1
[1]
  IC50: 71.4 nM
[2]
  IC50: 76.7 nM
[3]
  IC50: 59.8 nM
[4]
  IC50: 79.1 nM
[5]
  IC50: 72.2 nM
Second compound 0.1 µM, first compound 0.00949 µM
  viability, T/C: 106%
Second compound 0.1 µM, first compound 0.03 µM
  viability, T/C: 92.6%
Second compound 0.1 µM, first compound 0.0949 µM
  viability, T/C: 35.4%
Second compound 0.1 µM, first compound 0.3 µM
  viability, T/C: 15.4%
Second compound 0.1 µM, first compound 0.949 µM
  viability, T/C: 9.48%
Second compound 0.1 µM, first compound 3 µM
  viability, T/C: 7.12%
Second compound 0.316 µM, first compound 0.00949 µM
  viability, T/C: 102%
Second compound 0.316 µM, first compound 0.03 µM
  viability, T/C: 88.5%
Second compound 0.316 µM, first compound 0.0949 µM
  viability, T/C: 40.6%
Second compound 0.316 µM, first compound 0.3 µM
  viability, T/C: 15.8%
Second compound 0.316 µM, first compound 0.949 µM
  viability, T/C: 10.4%
Second compound 0.316 µM, first compound 3 µM
  viability, T/C: 6.65%
Second compound 1 µM, first compound 0.00949 µM
  viability, T/C: 93.3%
Second compound 1 µM, first compound 0.03 µM
  viability, T/C: 77.7%
Second compound 1 µM, first compound 0.0949 µM
  viability, T/C: 30.6%
Second compound 1 µM, first compound 0.3 µM
  viability, T/C: 16.2%
Second compound 1 µM, first compound 0.949 µM
  viability, T/C: 8.2%
Second compound 1 µM, first compound 3 µM
  viability, T/C: 6.77%
Second compound 3.16 µM, first compound 0.00949 µM
  viability, T/C: 96.6%
Second compound 3.16 µM, first compound 0.03 µM
  viability, T/C: 91.3%
Second compound 3.16 µM, first compound 0.0949 µM
  viability, T/C: 41.2%
Second compound 3.16 µM, first compound 0.3 µM
  viability, T/C: 17.7%
Second compound 3.16 µM, first compound 0.949 µM
  viability, T/C: 9.09%
Second compound 3.16 µM, first compound 3 µM
  viability, T/C: 7.34%
Second compound 10 µM, first compound 0.00949 µM
  viability, T/C: 99.4%
Second compound 10 µM, first compound 0.03 µM
  viability, T/C: 94.4%
Second compound 10 µM, first compound 0.0949 µM
  viability, T/C: 35.6%
Second compound 10 µM, first compound 0.3 µM
  viability, T/C: 18%
Second compound 10 µM, first compound 0.949 µM
  viability, T/C: 7.96%
Second compound 10 µM, first compound 3 µM
  viability, T/C: 6.31%

## O=C(C=Cn1cnc(-c2cc(C(F)(F)F)cc(C(F)(F)F)c2)n1)NNc1cnccn1 + NC1CC1c1ccc(-c2cccc(O)c2)cc1
[1]
  IC50: 219 nM
[2]
  IC50: 205 nM
[3]
  IC50: 168 nM
[4]
  IC50: 75 nM
[5]
  IC50: 17.8 nM
[6]
  viability, T/C: 81.3%
[7]
  viability, T/C: 75%
[8]
  viability, T/C: 85.6%
[9]
  viability, T/C: 65.6%
[10]
  viability, T/C: 42.5%
[11]
  viability, T/C: 23.1%
[12]
  viability, T/C: 69.8%
[13]
  viability, T/C: 79.1%
[14]
  viability, T/C: 78.5%
[15]
  viability, T/C: 78%
[16]
  viability, T/C: 34.2%
[17]
  viability, T/C: 22.7%
[18]
  viability, T/C: 65.1%
[19]
  viability, T/C: 66.5%
[20]
  viability, T/C: 79.3%
[21]
  viability, T/C: 53.6%
[22]
  viability, T/C: 40.5%
[23]
  viability, T/C: 19.4%
[24]
  viability, T/C: 67.2%
[25]
  viability, T/C: 61.2%
[26]
  viability, T/C: 52.2%
[27]
  viability, T/C: 50.4%
[28]
  viability, T/C: 36.9%
[29]
  viability, T/C: 17.5%
[30]
  viability, T/C: 56.6%
[31]
  viability, T/C: 56.9%
[32]
  viability, T/C: 43.6%
[33]
  viability, T/C: 36.5%
[34]
  viability, T/C: 24.7%
[35]
  viability, T/C: 16.8%

## Nc1ccccc1NC(=O)c1ccc(CNC(=O)OCc2cccnc2)cc1
Compound 0.00949 µM
  viability, T/C: 105% and 117%
Compound 0.03 µM
  viability, T/C: 102% and 112%
Compound 0.0949 µM
  viability, T/C: 83.6% and 104%
Compound 0.3 µM
  viability, T/C: 56.4% and 70.6%
Compound 0.949 µM
  viability, T/C: 11.1% and 25.3%
Compound 3 µM
  viability, T/C: 0.41% and 0.46%
Curve of compound
  IC50: 324 nM and 508 nM

## CC1COCCN1c1cc(-c2ccnn2C)c2ccnc(-c3ccn[nH]3)c2n1 (configuration not stated) + NC1CCC(NC2CC2c2ccccc2)CC1
[1]
  IC50: < 3.16 nM
[2]
  IC50: < 3.16 nM
[3]
  IC50: < 3.16 nM
[4]
  IC50: < 3.16 nM
[5]
  IC50: < 3.16 nM
[6]
  viability, T/C: 13.4%
[7]
  viability, T/C: 12.4%
[8]
  viability, T/C: 15.4%
[9]
  viability, T/C: 22.6%
[10]
  viability, T/C: 21.1%
[11]
  viability, T/C: 8.33%
[12]
  viability, T/C: 14.7%
[13]
  viability, T/C: 18.1%
[14]
  viability, T/C: 16.6%
[15]
  viability, T/C: 26.2%
[16]
  viability, T/C: 26.8%
[17]
  viability, T/C: 10.4%
[18]
  viability, T/C: 14.7%
[19]
  viability, T/C: 14.4%
[20]
  viability, T/C: 16.7%
[21]
  viability, T/C: 21.9%
[22]
  viability, T/C: 27.5%
[23]
  viability, T/C: 8.96%
[24]
  viability, T/C: 17.2%
[25]
  viability, T/C: 15.2%
[26]
  viability, T/C: 17.5%
[27]
  viability, T/C: 23.5%
[28]
  viability, T/C: 28.7%
[29]
  viability, T/C: 8.47%
[30]
  viability, T/C: 16.8%
[31]
  viability, T/C: 16.9%
[32]
  viability, T/C: 16.7%
[33]
  viability, T/C: 24.8%
[34]
  viability, T/C: 29.1%
[35]
  viability, T/C: 7.2%
